Test results taken from ChEMBL document CHEMBL4507267 (2021).

Columns and labels:
[1] = test system: Proto-oncogene tyrosine-protein kinase receptor Ret (Homo sapiens), P07949 [V804L]; settings: Compound concentration 1000.0 nM
[2] = test system: Receptor-type tyrosine-protein kinase FLT3 (Homo sapiens), P36888 [D835H]; settings: Compound concentration 1000.0 nM
[3] = target: Protein kinase C eta type (Homo sapiens) (UniProt P24723); settings: Compound concentration 1000.0 nM
[4] = target: Cyclin-dependent kinase-like 5 (Homo sapiens) (UniProt O76039); settings: Compound concentration 1000.0 nM
[5] = target: Atypical kinase COQ8A, mitochondrial (Homo sapiens) (UniProt Q8NI60); settings: Compound concentration 1000.0 nM
[6] = target: Calcium/calmodulin-dependent protein kinase type IV (Homo sapiens) (UniProt Q16566); settings: Compound concentration 1000.0 nM
[7] = target: Serine/threonine-protein kinase PAK 3 (Homo sapiens) (UniProt O75914); settings: Compound concentration 1000.0 nM
[8] = target: Aurora kinase A (Homo sapiens) (UniProt O14965); settings: Compound concentration 1000.0 nM
[9] = target: Epithelial discoidin domain-containing receptor 1 (Homo sapiens) (UniProt Q08345); settings: Compound concentration 1000.0 nM
Epithelial discoidin domain-containing receptor 1 (Homo sapiens), sequence (Q08345 whole entry, the tested form may be a part): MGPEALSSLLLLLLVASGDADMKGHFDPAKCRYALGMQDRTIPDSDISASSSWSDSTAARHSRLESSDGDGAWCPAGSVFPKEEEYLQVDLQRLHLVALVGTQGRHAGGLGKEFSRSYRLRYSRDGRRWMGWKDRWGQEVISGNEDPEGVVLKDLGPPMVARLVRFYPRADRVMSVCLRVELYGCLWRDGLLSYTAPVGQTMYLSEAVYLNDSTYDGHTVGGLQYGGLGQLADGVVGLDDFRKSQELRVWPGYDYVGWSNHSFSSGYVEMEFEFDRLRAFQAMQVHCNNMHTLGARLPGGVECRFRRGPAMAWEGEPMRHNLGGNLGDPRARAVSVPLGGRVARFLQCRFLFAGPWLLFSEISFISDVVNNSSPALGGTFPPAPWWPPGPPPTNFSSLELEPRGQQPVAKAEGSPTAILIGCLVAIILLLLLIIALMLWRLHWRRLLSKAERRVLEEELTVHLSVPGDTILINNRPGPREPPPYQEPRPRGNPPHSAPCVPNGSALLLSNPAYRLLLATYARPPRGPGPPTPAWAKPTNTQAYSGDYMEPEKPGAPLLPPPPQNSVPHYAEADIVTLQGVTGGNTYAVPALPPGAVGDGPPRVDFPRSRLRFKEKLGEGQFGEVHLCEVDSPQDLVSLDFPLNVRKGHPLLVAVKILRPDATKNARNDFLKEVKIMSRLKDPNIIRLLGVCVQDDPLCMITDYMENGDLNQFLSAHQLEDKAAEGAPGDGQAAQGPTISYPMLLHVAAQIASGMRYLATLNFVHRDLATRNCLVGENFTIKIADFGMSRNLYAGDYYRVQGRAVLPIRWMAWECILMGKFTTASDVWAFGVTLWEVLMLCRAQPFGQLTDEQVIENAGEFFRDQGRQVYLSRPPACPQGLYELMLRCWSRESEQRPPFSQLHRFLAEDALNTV

[10] = target: Muscarinic acetylcholine receptor M1 (Homo sapiens) (UniProt P11229); settings: Compound concentration 10.0 uM
Muscarinic acetylcholine receptor M1 (Homo sapiens), sequence (P11229 whole entry): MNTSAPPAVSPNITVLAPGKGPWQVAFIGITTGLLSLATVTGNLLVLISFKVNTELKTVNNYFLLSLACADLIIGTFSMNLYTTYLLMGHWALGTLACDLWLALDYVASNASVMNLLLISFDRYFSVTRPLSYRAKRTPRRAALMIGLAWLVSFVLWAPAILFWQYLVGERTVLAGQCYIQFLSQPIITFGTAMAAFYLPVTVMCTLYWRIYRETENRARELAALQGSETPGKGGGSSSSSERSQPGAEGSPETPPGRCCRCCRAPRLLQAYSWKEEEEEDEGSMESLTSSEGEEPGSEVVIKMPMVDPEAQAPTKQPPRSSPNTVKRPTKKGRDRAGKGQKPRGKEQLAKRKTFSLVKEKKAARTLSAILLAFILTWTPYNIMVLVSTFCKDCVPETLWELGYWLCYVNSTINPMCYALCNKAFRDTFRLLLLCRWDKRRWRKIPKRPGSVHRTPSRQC

[11] = target: Serine/threonine-protein kinase Nek6 (Homo sapiens) (UniProt Q9HC98); settings: Compound concentration 1000.0 nM
[12] = target: TGF-beta receptor type-2 (Homo sapiens) (UniProt P37173); settings: Compound concentration 1000.0 nM
[13] = target: Calcium/calmodulin-dependent protein kinase type II subunit delta (Homo sapiens) (UniProt Q13557); settings: Compound concentration 1000.0 nM
[14] = target: Interleukin-1 receptor-associated kinase 3 (Homo sapiens) (UniProt Q9Y616); settings: Compound concentration 1000.0 nM
Interleukin-1 receptor-associated kinase 3 (Homo sapiens), sequence (Q9Y616 whole entry): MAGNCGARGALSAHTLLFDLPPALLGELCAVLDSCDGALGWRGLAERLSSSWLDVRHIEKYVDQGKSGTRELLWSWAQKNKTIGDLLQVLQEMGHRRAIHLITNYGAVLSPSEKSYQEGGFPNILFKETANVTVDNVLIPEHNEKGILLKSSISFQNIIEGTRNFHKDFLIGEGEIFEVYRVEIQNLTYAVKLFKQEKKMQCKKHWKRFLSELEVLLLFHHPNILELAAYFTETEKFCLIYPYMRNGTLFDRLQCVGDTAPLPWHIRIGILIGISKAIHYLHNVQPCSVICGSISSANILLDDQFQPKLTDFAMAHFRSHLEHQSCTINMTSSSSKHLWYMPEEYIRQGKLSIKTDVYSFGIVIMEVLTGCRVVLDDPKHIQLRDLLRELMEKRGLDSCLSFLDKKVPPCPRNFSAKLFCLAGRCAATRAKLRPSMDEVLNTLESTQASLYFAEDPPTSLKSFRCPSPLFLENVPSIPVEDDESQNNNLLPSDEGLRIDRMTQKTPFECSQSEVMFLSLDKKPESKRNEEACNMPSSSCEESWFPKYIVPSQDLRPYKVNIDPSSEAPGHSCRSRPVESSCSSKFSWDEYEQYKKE

[15] = target: Glycogen synthase kinase-3 alpha (Homo sapiens) (UniProt P49840); settings: Compound concentration 1000.0 nM
[16] = test system: Serine/threonine-protein kinase B-raf (Homo sapiens), P15056 [V600E]; settings: Compound concentration 1000.0 nM
[17] = test system: Tyrosine-protein kinase ABL1 (Homo sapiens), P00519 [T315I]; settings: Compound concentration 1000.0 nM
[18] = target: Protein kinase C iota type (Homo sapiens) (UniProt P41743); settings: Compound concentration 1000.0 nM
[19] = target: 5'-AMP-activated protein kinase catalytic subunit alpha-1 (Homo sapiens) (UniProt Q13131); settings: Compound concentration 1000.0 nM
[20] = target: Cyclin-dependent kinase 4 (Homo sapiens) (UniProt P11802); settings: Compound concentration 1000.0 nM
[21] = target: Serine/threonine-protein kinase Nek2 (Homo sapiens) (UniProt P51955); settings: Compound concentration 1000.0 nM
[22] = target: Serine/threonine-protein kinase 32C (Homo sapiens) (UniProt Q86UX6); settings: Compound concentration 1000.0 nM
[23] = target: SRSF protein kinase 1 (Homo sapiens) (UniProt Q96SB4); settings: Compound concentration 1000.0 nM
[24] = test system: Phosphatidylinositol 4,5-bisphosphate 3-kinase catalytic subunit alpha isoform (Homo sapiens), P42336 [M1043I]; settings: Compound concentration 1000.0 nM
[25] = test system: Epidermal growth factor receptor (Homo sapiens), P00533 [UNDEFINED MUTATION]; settings: Compound concentration 1000.0 nM
[26] = test system: Tyrosine-protein kinase ABL1 (Homo sapiens), P00519 [Q252H]; settings: Compound concentration 1000.0 nM
[27] = target: Serine/threonine-protein kinase 16 (Homo sapiens) (UniProt O75716); settings: Compound concentration 1000.0 nM
[28] = target: Muscarinic acetylcholine receptor M2 (Homo sapiens) (UniProt P08172); settings: Compound concentration 10.0 uM
[29] = target: Cyclin-dependent kinase-like 1 (Homo sapiens) (UniProt Q00532); settings: Compound concentration 1000.0 nM
[30] = target: Serine/threonine-protein kinase 32A (Homo sapiens) (UniProt Q8WU08); settings: Compound concentration 1000.0 nM
Serine/threonine-protein kinase 32A (Homo sapiens), sequence (Q8WU08 whole entry): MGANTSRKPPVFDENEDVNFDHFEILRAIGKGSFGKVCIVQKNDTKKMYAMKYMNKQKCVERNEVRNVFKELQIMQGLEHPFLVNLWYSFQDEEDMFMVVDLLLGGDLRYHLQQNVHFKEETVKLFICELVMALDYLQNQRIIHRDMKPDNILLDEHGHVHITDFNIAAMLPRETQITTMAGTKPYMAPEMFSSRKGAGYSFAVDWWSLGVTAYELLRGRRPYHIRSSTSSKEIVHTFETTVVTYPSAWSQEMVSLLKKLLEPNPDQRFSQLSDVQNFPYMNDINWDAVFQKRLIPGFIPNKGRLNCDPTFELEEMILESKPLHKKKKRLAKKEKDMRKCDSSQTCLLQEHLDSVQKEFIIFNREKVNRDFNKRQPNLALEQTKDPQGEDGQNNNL

[31] = target: Serine/threonine-protein kinase RIO1 (Homo sapiens) (UniProt Q9BRS2); settings: Compound concentration 1000.0 nM
[32] = target: RAC-alpha serine/threonine-protein kinase (Homo sapiens) (UniProt P31749); settings: Compound concentration 1000.0 nM
[33] = target: Homeodomain-interacting protein kinase 1 (Homo sapiens) (UniProt Q86Z02); settings: Compound concentration 1000.0 nM
[34] = target: Rho-associated protein kinase 2 (Homo sapiens) (UniProt O75116); settings: Compound concentration 1000.0 nM
[35] = test system: Tyrosine-protein kinase ABL1 (Homo sapiens), P00519 [H396P]; settings: Compound concentration 1000.0 nM
[36] = target: Ribosomal protein S6 kinase alpha-4 (Homo sapiens) (UniProt O75676); settings: Compound concentration 1000.0 nM
[37] = target: Serine/threonine-protein kinase MARK1 (Homo sapiens) (UniProt Q9P0L2); settings: Compound concentration 1000.0 nM
[38] = target: Serine/threonine-protein kinase MRCK alpha (Homo sapiens) (UniProt Q5VT25); settings: Compound concentration 1000.0 nM
[39] = target: Mitogen-activated protein kinase 10 (Homo sapiens) (UniProt P53779); settings: Compound concentration 1000.0 nM
[40] = target: TRAF2 and NCK-interacting protein kinase (Homo sapiens) (UniProt Q9UKE5); settings: Compound concentration 1000.0 nM
[41] = target: cAMP-dependent protein kinase catalytic subunit alpha (Homo sapiens) (UniProt P17612); settings: Compound concentration 1000.0 nM
[42] = target: Cyclin-dependent kinase 11A (Homo sapiens) (UniProt Q9UQ88); settings: Compound concentration 1000.0 nM
[43] = target: Serine/threonine-protein kinase SIK3 (Homo sapiens) (UniProt Q9Y2K2); settings: Compound concentration 1000.0 nM
[44] = target: Ephrin type-B receptor 1 (Homo sapiens) (UniProt P54762); settings: Compound concentration 1000.0 nM
[45] = test system: ALK tyrosine kinase receptor (Homo sapiens), Q9UM73 [C1156Y]; settings: Compound concentration 1000.0 nM
ALK tyrosine kinase receptor (Homo sapiens), Q9UM73 [C1156Y], sequence (Q9UM73 whole entry C1156Y, looked up): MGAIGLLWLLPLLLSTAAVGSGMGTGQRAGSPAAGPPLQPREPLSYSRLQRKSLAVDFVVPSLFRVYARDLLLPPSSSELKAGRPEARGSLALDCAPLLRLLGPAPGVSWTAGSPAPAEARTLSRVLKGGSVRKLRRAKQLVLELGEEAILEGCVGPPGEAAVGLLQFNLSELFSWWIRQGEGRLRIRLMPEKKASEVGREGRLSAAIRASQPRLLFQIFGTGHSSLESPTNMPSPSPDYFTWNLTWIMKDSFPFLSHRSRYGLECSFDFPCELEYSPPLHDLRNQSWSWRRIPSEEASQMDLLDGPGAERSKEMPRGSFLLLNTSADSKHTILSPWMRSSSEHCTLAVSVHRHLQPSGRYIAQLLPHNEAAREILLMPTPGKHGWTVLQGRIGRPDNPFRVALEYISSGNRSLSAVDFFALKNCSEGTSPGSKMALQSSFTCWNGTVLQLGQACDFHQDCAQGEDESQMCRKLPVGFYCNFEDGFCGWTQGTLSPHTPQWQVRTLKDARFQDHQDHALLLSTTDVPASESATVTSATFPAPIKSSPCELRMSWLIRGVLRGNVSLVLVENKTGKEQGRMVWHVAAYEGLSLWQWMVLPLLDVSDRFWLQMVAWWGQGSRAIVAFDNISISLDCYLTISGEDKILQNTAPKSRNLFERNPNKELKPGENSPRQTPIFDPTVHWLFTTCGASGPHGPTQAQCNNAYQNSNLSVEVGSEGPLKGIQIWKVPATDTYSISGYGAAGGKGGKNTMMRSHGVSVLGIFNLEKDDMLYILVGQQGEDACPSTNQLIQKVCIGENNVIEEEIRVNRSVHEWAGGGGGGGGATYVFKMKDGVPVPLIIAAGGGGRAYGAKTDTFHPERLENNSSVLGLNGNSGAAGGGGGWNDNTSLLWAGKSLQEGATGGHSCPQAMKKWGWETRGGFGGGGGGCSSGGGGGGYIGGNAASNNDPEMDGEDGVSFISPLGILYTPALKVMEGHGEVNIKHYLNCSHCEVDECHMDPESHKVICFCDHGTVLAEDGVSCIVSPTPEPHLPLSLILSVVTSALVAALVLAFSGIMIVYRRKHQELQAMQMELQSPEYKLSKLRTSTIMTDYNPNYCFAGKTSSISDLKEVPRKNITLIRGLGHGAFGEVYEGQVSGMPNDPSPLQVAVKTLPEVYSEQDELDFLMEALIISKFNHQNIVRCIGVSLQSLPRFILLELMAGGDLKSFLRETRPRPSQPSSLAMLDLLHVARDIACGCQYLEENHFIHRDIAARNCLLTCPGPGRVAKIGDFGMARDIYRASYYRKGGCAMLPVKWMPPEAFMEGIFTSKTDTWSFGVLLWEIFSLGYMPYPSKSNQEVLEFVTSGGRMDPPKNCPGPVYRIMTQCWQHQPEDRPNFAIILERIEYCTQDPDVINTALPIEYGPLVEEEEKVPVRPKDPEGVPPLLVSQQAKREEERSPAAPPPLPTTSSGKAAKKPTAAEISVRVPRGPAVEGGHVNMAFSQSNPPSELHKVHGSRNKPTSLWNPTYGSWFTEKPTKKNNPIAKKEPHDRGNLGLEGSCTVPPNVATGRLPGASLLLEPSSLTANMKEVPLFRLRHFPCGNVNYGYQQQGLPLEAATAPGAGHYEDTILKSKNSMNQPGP

Proto-oncogene tyrosine-protein kinase receptor Ret (Homo sapiens), P07949 [V804L], sequence (P07949 whole entry V804L): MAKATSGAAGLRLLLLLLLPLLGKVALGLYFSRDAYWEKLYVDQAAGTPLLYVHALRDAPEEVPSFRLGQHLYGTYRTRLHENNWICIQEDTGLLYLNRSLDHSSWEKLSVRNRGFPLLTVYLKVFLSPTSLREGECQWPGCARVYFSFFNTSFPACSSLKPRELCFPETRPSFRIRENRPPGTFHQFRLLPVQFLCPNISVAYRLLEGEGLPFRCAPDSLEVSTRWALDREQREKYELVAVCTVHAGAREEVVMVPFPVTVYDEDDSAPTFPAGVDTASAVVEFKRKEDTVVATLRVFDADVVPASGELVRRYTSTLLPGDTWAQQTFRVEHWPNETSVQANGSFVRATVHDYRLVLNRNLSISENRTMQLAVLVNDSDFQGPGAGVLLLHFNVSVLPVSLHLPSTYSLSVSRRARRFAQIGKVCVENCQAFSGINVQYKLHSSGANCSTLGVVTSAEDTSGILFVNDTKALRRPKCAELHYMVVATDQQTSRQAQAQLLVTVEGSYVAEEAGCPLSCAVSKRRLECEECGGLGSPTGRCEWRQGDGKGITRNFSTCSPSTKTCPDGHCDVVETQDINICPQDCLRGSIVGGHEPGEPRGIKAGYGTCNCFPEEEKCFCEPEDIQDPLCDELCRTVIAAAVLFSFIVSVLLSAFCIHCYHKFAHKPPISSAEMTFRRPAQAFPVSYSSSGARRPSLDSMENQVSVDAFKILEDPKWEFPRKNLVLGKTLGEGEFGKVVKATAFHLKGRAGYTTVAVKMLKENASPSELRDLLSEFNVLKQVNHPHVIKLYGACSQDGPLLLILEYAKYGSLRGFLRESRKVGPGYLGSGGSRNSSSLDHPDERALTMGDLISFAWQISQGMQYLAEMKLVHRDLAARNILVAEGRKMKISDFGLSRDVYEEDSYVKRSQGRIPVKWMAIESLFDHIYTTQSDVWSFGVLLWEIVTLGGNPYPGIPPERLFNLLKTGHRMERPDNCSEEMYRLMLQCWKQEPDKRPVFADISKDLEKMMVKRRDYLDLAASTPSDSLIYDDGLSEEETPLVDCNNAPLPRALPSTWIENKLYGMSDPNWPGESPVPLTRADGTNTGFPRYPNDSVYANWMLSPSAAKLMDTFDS

Structure (SMILES): Cc1c(NC(=O)c2cc(C(N)=O)nc3cc(F)ccc23)c(C(F)(F)F)nn1Cc1ccc(C(C)(C)C)cc1 [BAY-588]
- residual activity [1]: 83%
- residual activity [2]: 79%
- residual activity [3]: 97%
- residual activity [4]: 100%
- residual activity [5]: 85%
- residual activity [6]: 90%
- residual activity [7]: 100%
- residual activity [8]: 100%
- residual activity [9]: 95%
- inhibition [10]: 37.2%
- residual activity [11]: 86%
- residual activity [12]: 100%
- residual activity [13]: 84%
- residual activity [14]: 100%
- residual activity [15]: 98%
- residual activity [16]: 98%
- residual activity [17]: 85%
- residual activity [18]: 98%
- residual activity [19]: 100%
- residual activity [20]: 100%
- residual activity [21]: 100%
- residual activity [22]: 100%
- residual activity [23]: 100%
- residual activity [24]: 80%
- residual activity [25]: 100%
- residual activity [26]: 84%
- residual activity [27]: 83%
- inhibition [28]: 15.3%
- residual activity [29]: 100%
- residual activity [30]: 100%
- residual activity [31]: 93%
- residual activity [32]: 93%
- residual activity [33]: 92%
- residual activity [34]: 100%
- residual activity [35]: 100%
- residual activity [36]: 100%
- residual activity [37]: 100%
- residual activity [38]: 100%
- residual activity [39]: 100%
- residual activity [40]: 98%
- residual activity [41]: 87%
- residual activity [42]: 94%
- residual activity [43]: 91%
- residual activity [44]: 86%
- residual activity [45]: 100%

Structure (SMILES): Cc1c(NC(=O)c2cc(C(N)=O)nc3cc(F)ccc23)c(C(F)(F)F)nn1Cc1ccc(C#N)cc1 [BAY-876]
- residual activity [1]: 100%
- residual activity [2]: 100%
- residual activity [3]: 95%
- residual activity [4]: 77%
- residual activity [5]: 82%
- residual activity [6]: 76%
- residual activity [7]: 76%
- residual activity [8]: 89%
- residual activity [9]: 1.5%
- inhibition [10]: 28.2%
- residual activity [11]: 100%
- residual activity [12]: 100%
- residual activity [13]: 90%
- residual activity [14]: 94%
- residual activity [15]: 100%
- residual activity [16]: 90%
- residual activity [17]: 92%
- residual activity [18]: 84%
- residual activity [19]: 86%
- residual activity [20]: 87%
- residual activity [21]: 100%
- residual activity [22]: 69%
- residual activity [23]: 83%
- residual activity [24]: 91%
- residual activity [25]: 91%
- residual activity [26]: 100%
- residual activity [27]: 100%
- inhibition [28]: 25.8%
- residual activity [29]: 82%
- residual activity [30]: 89%
- residual activity [31]: 93%
- residual activity [32]: 91%
- residual activity [33]: 73%
- residual activity [34]: 99%
- residual activity [35]: 81%
- residual activity [36]: 85%
- residual activity [37]: 100%
- residual activity [38]: 97%
- residual activity [39]: 85%
- residual activity [40]: 92%
- residual activity [41]: 78%
- residual activity [42]: 100%
- residual activity [43]: 81%
- residual activity [44]: 66%
- residual activity [45]: 98%
